Results from publication PMC12064818, “A general assay platform to study protein pharmacology using ligand-dependent structural dynamics” (Nature Communications, 2025).

Molecular target: T1, FLuc-C-HiBiT (Photinus pyralis, UniProt P08659)
T1 construct: firefly luciferase with C-terminal HiBiT tag, E. coli expressed
Test: biochemical
Conditions: enzyme activity, 10 uM ATP; read-out: IC50 or SDR50 (mM) / FLuc E

T1 sequence (P08659 whole entry, looked up): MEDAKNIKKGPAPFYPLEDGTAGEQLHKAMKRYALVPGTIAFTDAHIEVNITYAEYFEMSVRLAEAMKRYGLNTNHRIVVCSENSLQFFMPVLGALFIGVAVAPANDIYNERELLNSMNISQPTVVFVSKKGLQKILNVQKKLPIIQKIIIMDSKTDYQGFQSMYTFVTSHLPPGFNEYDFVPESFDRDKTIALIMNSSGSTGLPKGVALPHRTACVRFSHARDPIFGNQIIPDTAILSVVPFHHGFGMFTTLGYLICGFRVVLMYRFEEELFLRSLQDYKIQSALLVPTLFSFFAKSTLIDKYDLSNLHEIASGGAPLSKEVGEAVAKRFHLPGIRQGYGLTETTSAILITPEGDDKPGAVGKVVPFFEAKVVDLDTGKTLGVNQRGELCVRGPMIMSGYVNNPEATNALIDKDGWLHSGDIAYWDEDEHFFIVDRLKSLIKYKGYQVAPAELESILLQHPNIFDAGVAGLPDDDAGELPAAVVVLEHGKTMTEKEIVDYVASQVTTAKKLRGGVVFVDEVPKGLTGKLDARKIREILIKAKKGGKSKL

Structure (SMILES)	IC50
Nc1c(C(=O)Nc2ccc(C(=O)O)cc2)sc2nc3c(cc12)CCCC3 [NCGC00100367-01]	0.176 µM
Cc1ccc(NC(=O)c2ncn(-c3ccccc3)n2)cc1Cl [NCGC00107303-01]	4.95 µM
Cc1ccc(-c2cc3c(=O)n(CCNC(=O)Cc4cccc(F)c4)ccn3n2)c(C)c1 [NCGC00456965-01]	5.56 µM
C=CCNC(=O)c1cccc2c(C)nnn12 [NCGC00477166-01]	> 30 µM
Cc1noc(-c2cccn3c(CNC(=O)c4ccc(C(C)(C)C)cc4)nnc23)n1 [NCGC00457512-01]	9.89 µM
Cc1ccc(C(=O)Nc2cccc(C(=O)O)c2)cc1 [MLS000530214-02]	0.0556 µM
Nc1nc2c(nc(S)n2[C@@H]2O[C@H](CO)[C@@H](O)[C@H]2O)c(=O)[nH]1 [NCGC00096124-01]	2.48 µM
COc1ccc(-c2nc3ccccc3s2)cc1NC(=O)COc1cccc(C)c1 [NCGC00102101-01]	> 30 µM
COc1ccc(C(=O)NCC2Cc3cc(C)cc(-c4nc5ccccc5s4)c3O2)c(OC)c1OC (stereo not shown) [NCGC00240387-01]	> 30 µM
COc1ccc(C)cc1NC(=O)c1ccc2c(Cl)c3c(nc2c1)CCC3 [NCGC00111420-01]	1.11 µM
CNc1ccc2cc(-c3nc4ccc(C(=O)O)cc4s3)ccc2c1 [NCGC00655706-01]	0.007 µM
CCCN1CCc2nc(C(=O)Nc3ccccc3)oc2CC1 [NCGC00413331-01]	18 µM
Cc1ccc(/C=C/C(=O)N2CCC(c3nc4ccccc4o3)CC2)cc1 [NCGC00118334-01]	11.1 µM
Cc1ncccc1C(=O)N1CCC(Oc2ccc(-c3noc(-c4ccccc4)n3)cc2)C1 (stereo not shown) [NCGC00440997-01]	11.1 µM
O=C(Nc1ccc2oc(-c3ccccc3F)nc2c1)c1ccccc1Cl [NCGC00098974-01]	5.56 µM
COc1ccc2nc(-c3cccc(C(C)=O)c3)sc2c1 [NCGC00167608-01]	1.24 µM
Cc1ccc(-n2ncc3c(N4CCN(C)CC4)ncnc32)cc1 [NCGC00139016-01]	5.56 µM
Cc1ccc(C(=O)Nc2ccccc2C(=O)O)cc1[S+](=O)([O-])N1CCCCCC1 [NCGC00098472-01]	2.79 µM
CC(=O)Nc1ccc(NC(=O)CCCc2nc(-c3ccc(C(C)(C)C)cc3)no2)cc1 [NCGC00116112-01]	4.95 µM
CN(C)c1cccc(-c2ncc3c(n2)OCCN(c2ccccc2)C3=O)c1 [NCGC00413615-01]	12.8 µM
C[C@@H]1C(=O)O[C@H]2[C@H]1CC[C@@]1(C)Cc3sc(NCCc4ccccn4)nc3[C@@H](C)[C@H]21 [NCGC00391315-01]	16.1 µM
O=C(Nc1ccc2c(c1)OCCO2)N1CCC2(CC1)CC(N1CCCC1)CCO2 (stereo not shown) [NCGC00453772-01]	11.1 µM

Structure (SMILES)	IC50
N#Cc1c(-n2ncnc2-c2ccccc2Cl)sc2c1CCCCC2 [NCGC00099372-01]	2.21 µM
CC(=O)c1nn(-c2ccc(OC(F)(F)F)cc2)nc1Nc1ccccc1 [NCGC00116600-01]	0.7 µM
O=C(O)CCn1ncc2cc(OCc3ccc(-c4cccc(CO)c4)cc3)ccc21 [NCGC00418123-01]	16.1 µM
CCc1cccc(NC(=O)c2cc(-c3ccccc3)n[nH]2)c1 [NCGC00125661-01]	2.79 µM
COc1cccc(-c2cccc(COc3cnc4c(ccn4CC(=O)O)c3)c2)c1 [NCGC00418182-01]	16.1 µM
O=C(Nc1ccc([C@H]2OCC(=O)N(C3CCOCC3)[C@@H]2CO)cc1)c1ccc(C(F)(F)F)cc1 [NCGC00391115-01]	12.4 µM
Cc1cc(F)ccc1OC1(C(=O)O)CCN(c2ncnc3[nH]cnc23)CC1 [NCGC00438333-01]	> 30 µM
Cc1ccc(-n2ncc3c(N4CCCCCC4)ncnc32)cc1Cl [NCGC00139187-01]	0.7 µM
Clc1cccc(-n2ncc3c(N4CCC(Cc5ccccc5)CC4)ncnc32)c1 [NCGC00139124-01]	> 30 µM
c1ccc(Nc2cc3c(cn2)CN(Cc2ccsc2)CCN3)cc1 [NCGC00411091-01]	14.3 µM
c1nc(N2C[C@@H](c3ccc4c(c3)OCO4)[C@@H]3[C@H]2C2CCN3CC2)c2nc[nH]c2n1 [NCGC00444647-01]	> 30 µM
CCOc1cc2sc(N3CCC(C(=O)Nc4ccc(C(C)C)cc4)CC3)nc2cc1Br [NCGC00113423-01]	7 µM
O=C(NC1CCCC1)N1c2ccccc2CC1c1noc(C2CCOCC2)n1 (stereo not shown) [NCGC00471510-01]	11.1 µM
Cc1ccc(-c2nc(-c3ccccn3)no2)cc1Cl [NCGC00070724-01]	0.624 µM
Cc1ccc(F)cc1-c1ccc(COc2ccc3c(cnn3CCC(=O)O)c2)cc1 [NCGC00418121-01]	18 µM
Oc1ccccc1CN1CCNc2cc(Nc3ccccc3)ncc2C1 [NCGC00411199-02]	12.4 µM
COc1ccc(NC(=O)Nc2ccc(C)n(CC(=O)O)c2=O)cc1 [NCGC00432735-01]	9.89 µM
Clc1cccc(-c2nc(-c3ccccn3)no2)c1 [NCGC00035901-01]	0.989 µM
CC(=O)N1CCNc2cc(Nc3ccc(F)cc3)ncc2C1 [NCGC00411083-01]	5.7 µM
Cc1ccc(N2C(=O)c3[nH]nc(C)c3C2c2ccc(Cl)cc2)cc1 (stereo not shown) [NCGC00108483-01]	12.4 µM
CCN(CC)[S+](=O)([O-])c1ccc2nc(NC(=O)c3cccnc3)sc2c1 [NCGC00134045-01]	12.4 µM
O=C(O)c1cccc(-c2noc(-c3ccccc3Cl)n2)c1 [NCGC00168762-01]	0.00351 µM

Structure (SMILES)	IC50
CN(CCc1ccccn1)c1ccc(-c2nc(COc3ccccc3)no2)cn1 [NCGC00426301-01]	11.1 µM
COc1cccc2cc(C(=O)Nc3ccc(C)cc3)c(=O)oc12 [NCGC00099361-01]	0.495 µM
COc1ccc(NC(=O)Nc2ccc(C)n(CC(=O)N3CCCCCC3)c2=O)cc1 [NCGC00430834-01]	9.89 µM
CSc1cccc(NC(=O)c2ccc3c(c2)N(C)C2CCCN2C3=O)c1 (stereo not shown) [NCGC00452155-01]	11.1 µM
N#C/C(=C\c1ccc(-c2cc(Cl)ccc2Cl)o1)C(=O)Nc1ccccc1C(=O)O [NCGC00098944-01]	17.6 µM
COc1ccc(-c2cccc(COc3cnc4c(ccn4CC(=O)O)c3)c2)c(C)c1 [NCGC00418229-01]	> 30 µM
CCOc1ccc(-n2nc(CO)c(C(=O)NCc3cccc(OC)c3)n2)cc1 [NCGC00117153-01]	11.1 µM
CCOc1ccc(-c2cc3c(=O)n(CCNC(=O)c4cccc5[nH]ccc45)ccn3n2)cc1 [NCGC00456956-01]	5.56 µM
Clc1ccccc1Cc1cn2cc(-c3ccccc3)nc2s1 [NCGC00102100-01]	0.442 µM
CC(=O)NC1(C)CCN(Cc2cccc(-c3ccc4c(ccn4C)c3)c2)C1 (stereo not shown) [NCGC00410415-01]	10.1 µM
Cc1ccc(NC(=O)/C=C/c2ccccc2Cl)cc1Cl [NCGC00098283-01]	3.51 µM
O=C(Nc1ccc(-c2nc3ccccc3s2)c(O)c1)c1ccccc1F [NCGC00594666-01]	> 30 µM
COc1cccc(CC(=O)NCCn2ccn3nc(-c4ccc(C)cc4C)cc3c2=O)c1 [NCGC00456960-01]	8.81 µM
c1ccc(CNc2nc(-c3ccccc3)no2)cc1 [NCGC00422290-01]	17.6 µM
Cc1cn2c(=O)cc(COC(=O)c3cccc(NC(=O)COc4ccccc4Cl)c3)nc2s1 [NCGC00130619-01]	7 µM
Cc1ccc(OCC(=O)Nc2cccc(C(=O)OCc3cc(=O)n4nc(C)sc4n3)c2)cc1 [NCGC00130504-01]	7 µM
C[S+](=O)([O-])Nc1ccc(-c2nc3ccccc3s2)cc1 [NCGC00118996-01]	2.21 µM
Fc1ccc(-c2cn3cc(Cc4ccccc4Cl)sc3n2)cc1 [NCGC00102130-01]	0.989 µM
COc1cccc(-c2noc(COc3ccccc3Cl)n2)c1 [NCGC00115123-01]	11.1 µM
CCCOc1cccc(C(=O)Nc2ccc(-c3nc4ccccc4s3)c(Cl)c2)c1 [NCGC00102006-02]	15.7 µM
O=C(Nc1ccc(-c2nc3ccccc3s2)c(O)c1)c1ccccc1 [NCGC00594711-01]	> 30 µM
COC(=O)[C@@H]1C[C@H](NC(=O)c2ccc(Oc3ccccc3)cc2)CN1C [NCGC00433761-01]	15.7 µM

Structure (SMILES)	IC50
CN1CCN(c2ccc(-c3cccc(NC(=O)C4CCCCC4)c3)nn2)CC1 [NCGC00427550-01]	8.81 µM
O=C(Nc1ccccc1)c1nc2c(o1)CCN(Cc1cccc(Cl)c1)CC2 [NCGC00413390-01]	10.1 µM
Cc1ncc(CC(=O)NCc2ccc3[nH]c(-c4ccccc4F)c(C)c3c2)c(=O)[nH]1 [NCGC00436691-01]	12.4 µM
O=C(Nc1cccc(-c2nc3ccccc3s2)c1)N1CCC(O)C1 (stereo not shown) [NCGC00638360-01]	8.81 µM
Cc1ccc(NC(=O)N2CCC(CCNC(=O)c3ccc(F)cc3)CC2)cc1F [NCGC00425047-01]	11.1 µM
COc1cccc2cc(-c3nnc(-c4ccc(Cl)cc4)o3)c(=O)oc12 [NCGC00098120-01]	3.51 µM
CCOc1nccn2c(-c3ccc(CNC(=O)CNC(C)=O)cc3)cnc12 [NCGC00413921-01]	18 µM
Cc1ccccc1CCNC(=O)c1ccc2c(c1)nc1n2CCCCC1 [NCGC00133334-01]	0.881 µM
Cc1ccc(NC(=O)Nc2ccccc2)c(=O)n1CC(=O)NCC1CCCO1 (stereo not shown) [NCGC00430764-01]	11.1 µM
COc1ccc(-c2cc(N3CCCC(NC(=O)c4ccsc4)C3)[nH]n2)cc1 (stereo not shown) [NCGC00437662-01]	6.24 µM
Nc1nc(=O)c2[nH]c(=O)n(C3OC(CO)C(O)C3O)c2[nH]1 (stereo not shown) [NCGC00390457-01]	> 30 µM
CC(C)(O)CCc1ccc(C(=O)NCCSc2ccccn2)cc1 [NCGC00435911-01]	17.6 µM
Oc1ccc(Cl)cc1CN1CCOc2c(O)cc(-c3nc4ccccc4s3)cc2C1 [NCGC00240488-01]	> 30 µM
O=C(NCCc1ccccc1Cl)c1ccc2c(c1)nc1n2CCOC1 [NCGC00133432-01]	7 µM
O=C(N[C@H]1CCN2C(=O)c3cc(/C=C/c4ccc(O)cc4)ccc3NC(=O)[C@H]12)c1cnccn1 [NCGC00421527-01]	> 30 µM
COc1cccc(CC(=O)Nc2ccc(-c3nc4ccccc4s3)cc2)c1 [NCGC00137800-01]	8.81 µM
COc1ccc(C(=O)Nc2cc(-c3nc4ccccc4s3)ccc2OC)cc1 [NCGC00103028-01]	9.89 µM
COc1ccc(-c2noc([C@@H]3C[C@@H](O)CN3Cc3cc4ccccc4o3)n2)cc1 [NCGC00400688-01]	16.1 µM
COc1ccc2oc(=O)c(C(=O)Nc3cccc(C(=O)O)c3)cc2c1 [NCGC00100698-01]	0.0157 µM
